Experiments:
[1] = Structure and binding energy analysis of metal lactate salts; type: physicochemical; settings: as compared to sodium lactate and potassium lactate (FIG. 1)
Text: Calcium carbonate, sodium carbonate, or potassium carbonate was reacted with lactate so as to obtain metal lactate salt (calcium lactate, sodium lactate, or potassium lactate) solutions, respectively. Each of them was filtered, dried, and pulverized so as to obtain metal lactate salt (calcium lactate, sodium lactate, or potassium lactate) in the form of powder. Then, the structure and binding energy of the obtained metal lactate salts (calcium lactate, sodium lactate, or potassium lactate) were analyzed (FIG. 1).

cancer cell = assay: Dissociation of metal lactate salts to lactate in a cancer cell; type: cell-based
[2] = tested on: human colorectal cancer cell lines (HCT-116 and HT-29); assay: Calcium level in cancer cells (Fluo-3/AM, confocal microscope); type: cell-based; settings: 2.5 mM, 24 hours, vs untreated
Procedure: Each of human colorectal cancer cell lines (HCT-116 and HT-29) with the cell number of 5×10^5 cells cultured in a cancer cell culture medium (RPMI1640 medium including 10% FBS and 1% penicillin/streptomycin) at 37° C. with 5% CO2 was treated with 2.5 mM calcium lactate and then cultured for 24 hours. The cultured cancer cells were treated with 10 μM Fluo-3/AM calcium indicator and 25% Pluronic F-127, reacted at 37° C. for 30 minutes, applied with fluorescence probes, and then photographed with a confocal microscope (FIG. 2). In this case, cancer cells untreated with calcium lactate were used as control groups.

PARP [3] = assay: PARP protein expression in breast cancer cell lines (Western blot); type: cell-based, human
Procedure: Human breast cancer cell lines (MCF-7 and MDA-MB-231) were cultured by the same method as that of Example 2-1 except that they were treated with 0 mM, 2.5 mM, or 5.0 mM calcium lactate, and the cultured cancer cells were obtained. Then, changes in expression level depending on the concentration of calcium lactate was analyzed at the protein expression levels of PARP included therein (FIG. 8). In this case, the change in expression level was analyzed through a Western blot using the Image-J program with anti-PARP antibody as a primary antibody and anti-rabbit IgG conjugate as a secondary antibody, and GAPDH was used as internal control groups.

[4] = tested on: VEGF (vascular endothelial growth factor); assay: VEGF mRNA and protein expression; type: cell-based, human; settings: HCT-116 and HT-29; 2.5 mM, 24 hours, hypoxia condition
Procedure: Human colorectal cancer cell lines (HCT-116 and HT-29) were treated with 2.5 mM calcium lactate under hypoxia condition and cultured for 24 hours. Then, mRNA expression levels and protein expression levels of VEGF in each of the cultured cancer cell lines were analyzed (FIGS. 16a and 16b). In this case, human colorectal cancer cell lines cultured without treating with calcium lactate under normoxia or hypoxia condition were used as control groups.

[5] = tested on: human colorectal cancer cell lines (HCT-116, HT-29, and DLD-1); assay: Colony-forming ability of colorectal cancer cell lines in solid medium; type: cell-based; settings: HCT-116, HT-29, DLD-1; with increasing concentration (0.5, 1.5, 2.5 mM), 10 days
Procedure: Firstly, human colorectal cancer cell lines (HCT-116, HT-29, and DLD-1) were inoculated into solid mediums including various concentrations (0 mM, 0.5 mM, 1.5 mM, or 2.5 mM) of calcium lactate and cultured for 10 days. After the completion of the culture, the cells were immobilized and stained with hematoxylin. Then, the number of cancer cells formed into colonies was counted (FIG. 23).

PARP [6] = assay: PARP expression in tumor tissue of xenograft animal model; type: in vivo, Balb/c mice; settings: HT-29 tumor tissue; 2.5 mM P.O. or 2.5 mM I.T.; vs control group
Procedure: A colorectal cancer cell (HT-29) cultured in an RPMI1640 medium and then diluted with PBS was subcutaneously implanted into the flank of Balb/c mice. The mice were bred until the colorectal cancer cell grew to about 5 mm. Then, four groups were set up; a control group untreated with calcium lactate for 30 days, an experimental group 1 (peroral, P.O.) administered with 2.5 mM calcium lactate by oral administration, an experimental group 2 (intra tumor, I.T) injected with 2.5 mM calcium lactate around tumor, and an experimental group 3 (subcutaneous, S.C) subcutaneously injected with 25 mM calcium lactate (FIG. 27).
Colorectal cancer tissues were extracted from the mice of the control group, the experimental group 1, or the experimental group 2 set up in Example 10-1, and expression levels of PARP and truncated PARP contributing to stabilization of cancer cells expressed therein were compared (FIG. 28).

[7] = tested on: human lung cancer cell line (A549); assay: Colony-forming ability, anticancer drug in combination with calcium lactate (6-well plates); type: cell-based; settings: 2.5 mM calcium lactate alone, vs control
Procedure: Human breast cancer cell line (MCF-7) and a human lung cancer cell line (A549) with the cell number of 1×10^3 cells were seeded into an RPMI1640 medium in each of 6-well plates. […]. Then, the colony-forming abilities of the cells were compared. In this case, a human breast cancer cell line (MCF-7) and a human lung cancer cell line (A549) untreated with any drug were used as control groups (FIGS. 42a, 42b, 43a and 43b).
(§1) Human lung cancer cell line (A549) with the cell number of 1×10^3 cells were seeded into an RPMI1640 medium in each of 6-well plates. […]. Then, the colony-forming abilities of the cells were compared. In this case, a human lung cancer cell line (A549) untreated with any drug was used as a control group (FIGS. 44a and 44b).
as §1, with “47a” for “44a”, “47b).” for “44b).”
as §1, with “49a” for “44a”, “49b).” for “44b).”
as §1, with “50a” for “44a”, “50b).” for “44b).”
as §1, with “51a” for “44a”, “51b).” for “44b).”

[8] = tested on: human breast cancer cell line (MCF-7) showing a resistance to Trastuzumab; assay: Colony-forming ability, Trastuzumab in combination with calcium lactate (6-well plates); type: cell-based; settings: Trastuzumab-resistant MCF-7; 2.5 mM calcium lactate alone; vs control
Text: Then, the colony-forming abilities of the cells were compared. In this case, a human breast cancer cell line (MCF-7) untreated with any drug was used as a control group (FIGS. 54a and 54b).

## CC(O)C(=O)[O-].CC(O)C(=O)[O-].[Ca+2] (stereo not shown) [calcium lactate]
[1]
  binding energy: relatively high binding energy
Cancer cell
  dissociation to lactate in a cancer cell: can be dissociated to lactate
[2]
  concentration of calcium in cancer cells: increased
PARP [3]; MCF-7 and MDA-MB-231, with increasing concentration (0, 2.5, 5.0 mM)
  protein expression levels of PARP: decreased
PARP [3]; MCF-7 cell line, 0, 2.5, 5.0 mM
  protein expression levels of the truncated PARP: increased
[4]
  VEGF level (mRNA and protein): decreased
[5]
  number of colonies: decreased
PARP [6]
  PARP degrading activity: increased
[7]
  colony-forming ability: suppressed
[8]
  colony-forming ability: decreased

Source: patent US11413261B2, “Pharmaceutical composition for treating cancer comprising lactate metal salt” (METIMEDI PHARMACEUTICALS CO., LTD, priority 2014, dated 2022)
